SMILES strings stand for the structures. Where a name gives a salt, the structure may show the parent alone.

The values below come from ChEMBL document CHEMBL4311954, “Synthesis, biological evaluation, and docking studies of new raloxifene sulfonate or sulfamate derivatives as inhibitors of nucleotide pyrophosphatase/phosphodiesterase” (Eur J Med Chem, 2019).

Test [1] has as its target T1, Ectonucleotide pyrophosphatase/phosphodiesterase family member 1 (Homo sapiens, UniProt P22413).
T1 sequence (P22413 whole entry): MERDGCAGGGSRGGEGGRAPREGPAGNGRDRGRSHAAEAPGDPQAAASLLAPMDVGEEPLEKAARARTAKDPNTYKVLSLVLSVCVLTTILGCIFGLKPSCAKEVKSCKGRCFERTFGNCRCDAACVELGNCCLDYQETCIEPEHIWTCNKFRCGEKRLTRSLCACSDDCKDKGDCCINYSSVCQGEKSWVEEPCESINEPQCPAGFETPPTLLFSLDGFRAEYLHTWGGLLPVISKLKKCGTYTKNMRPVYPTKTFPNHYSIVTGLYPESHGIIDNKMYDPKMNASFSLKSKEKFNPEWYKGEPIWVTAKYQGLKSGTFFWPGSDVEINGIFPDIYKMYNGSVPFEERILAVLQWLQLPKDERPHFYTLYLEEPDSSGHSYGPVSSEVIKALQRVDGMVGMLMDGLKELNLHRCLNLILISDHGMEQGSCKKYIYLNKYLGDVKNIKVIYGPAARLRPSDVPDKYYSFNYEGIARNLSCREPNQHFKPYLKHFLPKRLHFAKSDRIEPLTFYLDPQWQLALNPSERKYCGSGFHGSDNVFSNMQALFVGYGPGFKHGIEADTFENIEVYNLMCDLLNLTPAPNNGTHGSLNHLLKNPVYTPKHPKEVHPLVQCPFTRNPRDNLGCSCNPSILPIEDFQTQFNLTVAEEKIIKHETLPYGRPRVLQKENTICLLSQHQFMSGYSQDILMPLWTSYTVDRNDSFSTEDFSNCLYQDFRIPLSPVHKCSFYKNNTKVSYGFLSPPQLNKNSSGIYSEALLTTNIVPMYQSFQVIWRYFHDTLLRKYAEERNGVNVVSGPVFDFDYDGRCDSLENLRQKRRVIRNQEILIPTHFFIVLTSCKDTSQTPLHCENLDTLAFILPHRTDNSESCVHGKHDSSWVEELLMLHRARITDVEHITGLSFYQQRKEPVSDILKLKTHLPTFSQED
Description: Inhibition of human NPP1 expressed in COS-7 cell membranes assessed as reduction in p-nitrophenol production using pNP-TMP as substrate preincubated with enzyme for 15 mins followed by substrate addition and measured after 35 mins.

The target of test [2] is T2, Ectonucleotide pyrophosphatase/phosphodiesterase family member 3 (Homo sapiens, UniProt O14638).
T2 sequence (O14638 whole entry): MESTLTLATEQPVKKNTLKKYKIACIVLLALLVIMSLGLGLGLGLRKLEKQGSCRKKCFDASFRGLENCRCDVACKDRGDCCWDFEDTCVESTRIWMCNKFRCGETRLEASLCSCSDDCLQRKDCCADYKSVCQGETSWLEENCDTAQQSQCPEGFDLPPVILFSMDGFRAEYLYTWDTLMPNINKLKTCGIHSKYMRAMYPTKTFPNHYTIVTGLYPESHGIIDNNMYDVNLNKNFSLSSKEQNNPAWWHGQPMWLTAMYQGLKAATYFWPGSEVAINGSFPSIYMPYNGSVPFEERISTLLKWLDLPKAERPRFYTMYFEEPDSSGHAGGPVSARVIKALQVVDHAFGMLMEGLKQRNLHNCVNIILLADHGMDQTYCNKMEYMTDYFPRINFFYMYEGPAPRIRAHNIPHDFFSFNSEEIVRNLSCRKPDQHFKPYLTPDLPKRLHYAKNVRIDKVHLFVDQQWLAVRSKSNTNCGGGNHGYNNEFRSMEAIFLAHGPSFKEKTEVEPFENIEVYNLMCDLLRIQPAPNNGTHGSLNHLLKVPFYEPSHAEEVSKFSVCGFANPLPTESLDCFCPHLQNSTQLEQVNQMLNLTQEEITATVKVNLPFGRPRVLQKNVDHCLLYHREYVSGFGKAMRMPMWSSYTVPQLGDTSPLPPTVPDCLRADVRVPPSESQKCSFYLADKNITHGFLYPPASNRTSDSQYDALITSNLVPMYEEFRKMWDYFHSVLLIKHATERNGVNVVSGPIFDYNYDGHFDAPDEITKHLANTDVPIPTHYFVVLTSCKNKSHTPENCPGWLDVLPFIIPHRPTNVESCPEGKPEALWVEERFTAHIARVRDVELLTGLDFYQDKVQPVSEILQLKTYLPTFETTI
Description: Inhibition of human NPP3 expressed in COS-7 cell membranes assessed as reduction in p-nitrophenol production using pNP-TMP as substrate preincubated with enzyme for 15 mins followed by substrate addition and measured after 35 mins.

The subject of test [3] is A549. Description: Antiproliferative activity against human A549 cells assessed as cell viability at 10 uM after 72 hrs by MTT assay relative to control. It counts as functional. The note with it: A549, 72 h, read-out: Activity.
Test [4] relates to MCF7. Description: Antiproliferative activity against human MCF7 cells assessed as cell viability at 10 uM after 72 hrs by MTT assay relative to control. It counts as functional. As to conditions: MCF7, 72 h, read-out: Activity.
The test system of test [5] is HT-29. Description: Antiproliferative activity against human HT-29 cells assessed as cell viability at 10 uM after 72 hrs by MTT assay relative to control. As to conditions: HT-29, 72 h, read-out: Activity. Format: functional.
Test [6] deals with A549. Description: Antiproliferative activity against human A549 cells assessed as reduction in cell viability after 48 hrs by MTT assay. Format: functional, cell-based. The note with it: A549, 48 h.
Test [7] relates to MCF7. Description: Antiproliferative activity against human MCF7 cells assessed as reduction in cell viability after 48 hrs by MTT assay. Format: functional, cell-based. As to conditions: MCF7, 48 h.
Test [8] relates to HT-29. Description: Antiproliferative activity against human HT-29 cells assessed as reduction in cell viability after 48 hrs by MTT assay. It counts as functional, cell-based. The note with it: HT-29, 48 h.
The nature of test [9]: Cytotoxicity against human F180 cells assessed as reduction in cell viability after 48 hrs by MTT assay. Format: cell-based. The note with it: F180, 48 h.
Test [10] is described as follows: Selectivity index, ratio of IC50 for human F180 cells to IC50 for human HT-29 cells.
Test [11] addresses T3, Ectonucleotide pyrophosphatase/phosphodiesterase family member 3 (Homo sapiens) (UniProt O14638).
T3 sequence (whole entry): T2 sequence (O14638 whole entry)
Description: Inhibition of human NPP3 expressed in COS-7 cell membranes assessed as reduction in p-nitrophenol production at 100 uM using pNP-TMP as substrate preincubated with enzyme for 15 mins followed by substrate addition and measured after 35 mins relative to control.

In test [12] the target is T4, Ectonucleotide pyrophosphatase/phosphodiesterase family member 1 (Homo sapiens) (UniProt P22413).
T4 sequence (whole entry): T1 sequence (P22413 whole entry)
Description: Inhibition of human NPP1 expressed in COS-7 cell membranes assessed as reduction in p-nitrophenol production at 100 uM using pNP-TMP as substrate preincubated with enzyme for 15 mins followed by substrate addition and measured after 35 mins relative to control.

As to `COc1ccc(S(=O)(=O)Oc2ccc(-c3sc4cc(OS(=O)(=O)c5ccc(OC)cc5)ccc4c3C(=O)c3ccc(OCCN4CCCCC4)cc3)cc2)cc1`, the values for the IC50 in [1] and in test [2] were 0.42 µM and 1.24 µM, respectively. Besides, the viability at 10 µM in the test on A549 [3] is 99.4%; with MCF7 [4], 127%; in the test on HT-29 [5] it was 89.3%.

For `O=C(c1ccc(OCCN2CCCCC2)cc1)c1c(-c2ccc(OS(=O)(=O)c3ccc(F)cc3)cc2)sc2cc(OS(=O)(=O)c3ccc(F)cc3)ccc12`, the IC50 in test [1] amounted to 8.88 µM; in test [2], 1.81 µM. Further, the viability at 10 µM was 105% in the test with A549 [3], 115% with MCF7 [4] and 108% with HT-29 [5].

On to `CC(C)(C)c1ccc(S(=O)(=O)Oc2ccc(-c3sc4cc(OS(=O)(=O)c5ccc(C(C)(C)C)cc5)ccc4c3C(=O)c3ccc(OCCN4CCCCC4)cc3)cc2)cc1`, for which the IC50 in [1] is 0.29 µM; in test [2] it was 0.71 µM; in the test on A549 [6] it was 6.7 µM; in the test with MCF7 [7], 3.2 µM; in the test on HT-29 [8], 1.4 µM; in [9], 11.8 µM. The viability at 10 µM in the test on A549 [3] turned out to be 7.3%; in the test on MCF7 [4] it was 12.1%; in the test on HT-29 [5] it was 9.9%. The “Ratio IC50” value in [10] turned out to be 8.43.

With `Cc1ccc(S(=O)(=O)Oc2ccc(-c3sc4cc(OS(=O)(=O)c5ccc(C)cc5)ccc4c3C(=O)c3ccc(OCCN4CCCCC4)cc3)cc2)cc1`, the IC50 in test [1] was 0.45 µM. For the same molecule, the inhibition in [11] was found to be 38.5%. Moreover, the viability at 10 µM was 95.2% with A549 [3], 116% in the test with MCF7 [4] and 72.4% in the test with HT-29 [5].

Turning to `CN(C)S(=O)(=O)Oc1ccc(-c2sc3cc(OS(=O)(=O)N(C)C)ccc3c2C(=O)c2ccc(OCCN3CCCCC3)cc2)cc1`, the IC50 was 4.24 µM in test [1]; more than 15 µM in the test with A549 [6]; 3.4 µM with MCF7 [7]; 1.5 µM in the test with HT-29 [8]; 14 µM in test [9]. Further, in test [11], the inhibition was found to be 43.7%. In addition, the viability at 10 µM worked out at 91.8% with A549 [3], 58% in the test with MCF7 [4] and 25% with HT-29 [5].

Turning to `CCS(=O)(=O)Oc1ccc(-c2sc3cc(OS(=O)(=O)CC)ccc3c2C(=O)c2ccc(OCCN3CCCCC3)cc2)cc1`, the inhibition in test [12] came to 35.1%. Besides, the IC50 in test [2] was 1.51 µM. Further, the viability at 10 µM came to 90.2% with A549 [3], 118% in the test on MCF7 [4] and 62.2% in the test on HT-29 [5].

On to `O=C(c1ccc(OCCN2CCCCC2)cc1)c1c(-c2ccc(OS(=O)(=O)c3ccc(C(F)(F)F)cc3)cc2)sc2cc(OS(=O)(=O)c3ccc(C(F)(F)F)cc3)ccc12`, for which the IC50 in [1] was 4.01 µM; in test [2] it was 0.23 µM; with A549 [6] it was more than 15 µM; in the test on MCF7 [7], more than 15 µM; in the test with HT-29 [8] it was 4 µM; in test [9] it was more than 15 µM. In addition, the results for the viability at 10 µM with A549 [3], in the test with MCF7 [4] and in the test on HT-29 [5] were 67.7%, 41% and 17.4%, respectively.

As to `O=C(c1ccc(OCCN2CCCCC2)cc1)c1c(-c2ccc(OS(=O)(=O)C3CCCCC3)cc2)sc2cc(OS(=O)(=O)C3CCCCC3)ccc12`, the inhibition in test [12] worked out at 30%. For the same molecule, the IC50 in test [2] was determined as 0.49 µM. Besides, the viability at 10 µM in the test with A549 [3] came to 104%; with MCF7 [4], 136%; with HT-29 [5] it was 109%.

With `O=C(c1ccc(OCCN2CCCCC2)cc1)c1c(-c2ccc(OS(=O)(=O)c3cccc4cccnc34)cc2)sc2cc(OS(=O)(=O)c3cccc4cccnc34)ccc12`, the inhibition was determined as 28.7% in test [12] and 42.5% in [11]. The viability at 10 µM amounted to 99.2% in the test on A549 [3], 129% in the test with MCF7 [4] and 110% in the test with HT-29 [5].

`O=C(c1ccc(OCCN2CCCCC2)cc1)c1c(-c2ccc(O)cc2)sc2cc(O)ccc12` [RALOXIFENE HYDROCHLORIDE]: the viability at 10 µM with A549 [3] was 87%; in the test on MCF7 [4], 77.7%; in the test on HT-29 [5], 107%. The IC50 (in the test with A549 [6]; with MCF7 [7]; in the test with HT-29 [8]; in test [9]) was more than 15 µM throughout.

Regarding `CNS(=O)(=O)Oc1ccc(-c2sc3cc(OS(=O)(=O)NC)ccc3c2C(=O)c2ccc(OCCN3CCCCC3)cc2)cc1`, in test [12], the inhibition worked out at 36%. In addition, the IC50 in [2] is 1.55 µM; in the test with A549 [6] it was 13 µM; in the test with MCF7 [7] it was 6 µM; with HT-29 [8], 1.7 µM; in test [9], more than 15 µM. The values for the viability at 10 µM in the test on A549 [3], in the test with MCF7 [4] and with HT-29 [5] were 58.9%, 37.2% and 11.5%, respectively.
